Measurements from patent publication US20040214833A1, “Tricyclic heteroaromatic compounds” (Boehringer Ingelheim International GmbH, priority 2003, published 2004).
Like-named read-outs stand apart in the source and are kept apart here.

Molecular target: T1, N-type calcium channel (Homo sapiens, UniProt Q00975)
T1 construct: expressed in transfected cells; host or cells: HEK 293
Assay: Patch-Clamp blockade of voltage-dependent N-type calcium channels in recombinant HEK 293 cells
Assay type: cell-based
Source text: The antinociceptive activity of the compounds of this invention is based on a blockade of the voltage-dependent N-type calcium channels. This inhibiting activity is detected electrophysiologically by the Patch-Clamp technique (cf: Improved patch-clamp techniques for high resolution current recording from cells and cell-free membrane patches; Hamill et al.; Pflügers Archiv, 391, 1981, 85-100) on recombinant HEK 293 cells which express the N-type calcium channel.

[1] = N-type calcium channel, Patch-Clamp, HEK 293 cells, read-out: IC50 value
[2] = Patch-Clamp technique, recombinant HEK 293 cells which express the N-type calcium channel, read-out: IC50 values

T1 sequence (Q00975 whole entry): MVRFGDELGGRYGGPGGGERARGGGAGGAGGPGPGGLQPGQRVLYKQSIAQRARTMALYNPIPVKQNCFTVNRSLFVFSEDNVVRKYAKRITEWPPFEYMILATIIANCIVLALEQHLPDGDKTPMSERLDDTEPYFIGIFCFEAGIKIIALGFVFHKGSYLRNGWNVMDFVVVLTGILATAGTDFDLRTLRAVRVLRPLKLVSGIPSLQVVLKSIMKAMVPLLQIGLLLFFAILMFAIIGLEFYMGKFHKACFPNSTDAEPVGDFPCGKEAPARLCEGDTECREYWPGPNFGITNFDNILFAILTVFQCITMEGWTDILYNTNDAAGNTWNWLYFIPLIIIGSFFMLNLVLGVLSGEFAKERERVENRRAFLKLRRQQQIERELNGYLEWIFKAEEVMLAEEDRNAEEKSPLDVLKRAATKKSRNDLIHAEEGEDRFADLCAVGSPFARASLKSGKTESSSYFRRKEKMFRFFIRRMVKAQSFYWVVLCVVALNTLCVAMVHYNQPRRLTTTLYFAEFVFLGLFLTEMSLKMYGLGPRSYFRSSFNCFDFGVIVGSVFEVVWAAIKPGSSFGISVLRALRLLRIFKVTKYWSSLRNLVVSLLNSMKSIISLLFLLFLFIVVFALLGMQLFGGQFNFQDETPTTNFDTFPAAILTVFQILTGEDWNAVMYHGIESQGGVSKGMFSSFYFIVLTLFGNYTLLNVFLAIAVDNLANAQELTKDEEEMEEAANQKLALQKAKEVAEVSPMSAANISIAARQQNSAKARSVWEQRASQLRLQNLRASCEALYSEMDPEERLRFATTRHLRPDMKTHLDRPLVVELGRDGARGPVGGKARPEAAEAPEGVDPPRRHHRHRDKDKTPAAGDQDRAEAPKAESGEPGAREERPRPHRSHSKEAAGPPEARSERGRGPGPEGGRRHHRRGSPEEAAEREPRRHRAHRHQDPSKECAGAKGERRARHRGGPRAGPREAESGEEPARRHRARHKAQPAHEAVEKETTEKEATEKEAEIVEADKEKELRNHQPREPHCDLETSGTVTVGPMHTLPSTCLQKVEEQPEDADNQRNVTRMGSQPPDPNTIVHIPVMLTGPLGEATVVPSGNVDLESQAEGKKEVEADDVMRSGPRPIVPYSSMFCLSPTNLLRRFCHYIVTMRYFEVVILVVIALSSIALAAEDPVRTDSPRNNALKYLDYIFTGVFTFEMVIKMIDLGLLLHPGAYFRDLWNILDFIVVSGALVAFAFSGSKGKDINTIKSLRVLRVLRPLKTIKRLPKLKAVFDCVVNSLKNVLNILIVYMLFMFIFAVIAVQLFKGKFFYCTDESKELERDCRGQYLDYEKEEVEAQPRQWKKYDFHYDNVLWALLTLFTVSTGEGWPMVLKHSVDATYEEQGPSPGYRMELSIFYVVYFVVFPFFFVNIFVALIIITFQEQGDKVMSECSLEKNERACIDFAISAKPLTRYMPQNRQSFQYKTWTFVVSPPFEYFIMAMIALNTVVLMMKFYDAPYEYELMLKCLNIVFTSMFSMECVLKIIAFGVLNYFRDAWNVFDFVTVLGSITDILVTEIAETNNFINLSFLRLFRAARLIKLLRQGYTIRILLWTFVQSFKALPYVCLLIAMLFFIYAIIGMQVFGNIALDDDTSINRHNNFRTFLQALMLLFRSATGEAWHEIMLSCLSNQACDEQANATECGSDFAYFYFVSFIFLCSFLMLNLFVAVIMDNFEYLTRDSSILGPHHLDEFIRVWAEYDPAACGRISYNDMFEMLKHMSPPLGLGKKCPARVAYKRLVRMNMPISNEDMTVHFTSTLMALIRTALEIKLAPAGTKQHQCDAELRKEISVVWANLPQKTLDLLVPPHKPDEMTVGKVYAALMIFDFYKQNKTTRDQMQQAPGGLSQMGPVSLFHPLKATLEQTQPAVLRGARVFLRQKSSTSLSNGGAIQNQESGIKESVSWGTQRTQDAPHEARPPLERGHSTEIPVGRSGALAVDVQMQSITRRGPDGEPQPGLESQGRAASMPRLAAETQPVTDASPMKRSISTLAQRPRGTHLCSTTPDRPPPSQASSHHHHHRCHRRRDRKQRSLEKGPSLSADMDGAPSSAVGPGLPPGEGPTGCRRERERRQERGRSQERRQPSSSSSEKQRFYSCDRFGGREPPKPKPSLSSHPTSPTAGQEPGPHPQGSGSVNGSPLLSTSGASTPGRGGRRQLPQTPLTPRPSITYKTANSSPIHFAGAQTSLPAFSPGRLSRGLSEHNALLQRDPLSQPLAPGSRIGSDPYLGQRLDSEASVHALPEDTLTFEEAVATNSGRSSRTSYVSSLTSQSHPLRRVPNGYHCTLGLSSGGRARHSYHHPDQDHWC
T1 sequence (P54289 25-956 partner limits assumed): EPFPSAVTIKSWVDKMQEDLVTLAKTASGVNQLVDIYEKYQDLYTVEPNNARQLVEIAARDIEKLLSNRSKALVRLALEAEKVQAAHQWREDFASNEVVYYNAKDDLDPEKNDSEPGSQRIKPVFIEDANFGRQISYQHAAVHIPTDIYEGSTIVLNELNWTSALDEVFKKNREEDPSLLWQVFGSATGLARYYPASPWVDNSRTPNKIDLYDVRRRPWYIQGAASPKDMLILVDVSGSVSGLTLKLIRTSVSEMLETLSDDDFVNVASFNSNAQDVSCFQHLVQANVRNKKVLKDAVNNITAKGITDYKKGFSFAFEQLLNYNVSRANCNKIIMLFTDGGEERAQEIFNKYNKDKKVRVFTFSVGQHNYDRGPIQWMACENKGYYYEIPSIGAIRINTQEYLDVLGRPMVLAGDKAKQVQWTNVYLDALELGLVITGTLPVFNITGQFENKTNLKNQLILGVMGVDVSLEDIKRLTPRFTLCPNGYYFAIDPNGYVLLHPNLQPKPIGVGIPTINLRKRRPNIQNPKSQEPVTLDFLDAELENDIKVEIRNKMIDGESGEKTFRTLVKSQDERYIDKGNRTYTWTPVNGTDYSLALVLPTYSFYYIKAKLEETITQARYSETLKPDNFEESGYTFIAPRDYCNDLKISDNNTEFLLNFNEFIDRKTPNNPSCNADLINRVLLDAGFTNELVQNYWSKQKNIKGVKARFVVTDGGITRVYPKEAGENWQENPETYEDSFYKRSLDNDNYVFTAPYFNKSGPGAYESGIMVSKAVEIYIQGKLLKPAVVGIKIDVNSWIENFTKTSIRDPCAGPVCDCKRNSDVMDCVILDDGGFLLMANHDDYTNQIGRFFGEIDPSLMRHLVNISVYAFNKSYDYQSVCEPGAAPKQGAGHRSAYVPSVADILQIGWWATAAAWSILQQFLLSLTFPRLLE
T1 sequence (P54289 957-1103 partner limits assumed): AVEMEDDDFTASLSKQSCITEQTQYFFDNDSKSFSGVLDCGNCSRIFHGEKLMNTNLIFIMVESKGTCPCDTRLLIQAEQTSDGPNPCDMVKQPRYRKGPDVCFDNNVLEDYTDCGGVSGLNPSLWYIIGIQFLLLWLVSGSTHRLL
T1 sequence (P54284 whole entry partner): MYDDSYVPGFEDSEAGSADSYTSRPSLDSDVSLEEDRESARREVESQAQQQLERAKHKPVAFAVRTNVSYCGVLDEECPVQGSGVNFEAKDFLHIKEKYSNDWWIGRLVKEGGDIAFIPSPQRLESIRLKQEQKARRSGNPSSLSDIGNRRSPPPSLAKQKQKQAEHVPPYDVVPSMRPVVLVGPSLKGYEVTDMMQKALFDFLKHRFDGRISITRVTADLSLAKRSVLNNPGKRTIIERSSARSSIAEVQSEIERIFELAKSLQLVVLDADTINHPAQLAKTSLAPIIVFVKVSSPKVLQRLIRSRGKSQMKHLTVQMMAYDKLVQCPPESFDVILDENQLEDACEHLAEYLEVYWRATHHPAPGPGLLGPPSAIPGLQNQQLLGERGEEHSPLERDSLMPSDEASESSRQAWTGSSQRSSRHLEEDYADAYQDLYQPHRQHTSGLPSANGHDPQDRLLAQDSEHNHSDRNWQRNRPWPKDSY

SMILES	IC50 [1]	IC50 [2]	other results
CNc1cc(-c2ccncc2)nc2ccc3c(ncn3C)c12 [Example 1, 3-methyl-9-methylamino-7-(pyridin-4-yl)-3H-imidazo[4,5-f]quinoline]	9.9 µM	–	–
CNc1cc(-c2cccc(F)c2)nc2ccc3c(ncn3C)c12 [Example 2, 7-(3-fluorophenyl)-3-methyl-9-methylamino-3H-imidazo [4,5-f]quinoline]	15.2 µM	–	–
CN(C)c1cc(-c2cccc(F)c2)nc2ccc3c(ncn3C)c12 [Example 3, 9-dimethylamino-7-(3-fluorophenyl)-3-methyl-3H-imidazo [4,5-f]quinoline]	–	–	IC50 value (N-type calcium channel, Patch-Clamp, HEK 293 cells): biphasic
Cc1nc2c(ccc3nc(-c4cccc(F)c4)cc(N(C)C)c32)s1 [Example 4, 9-dimethylamino-7-(3-fluorophenyl)-2-methyl-thiazolo[4,5-f]quinoline]	–	3.6 µM	–

More lines, main results first:

IC50 [1]	IC50 [2]	SMILES	other results
14.3 µM	–	CN(C)c1cc(-c2cccc(F)c2)nc2ccc3ncsc3c12 [Example 5, 9-dimethylamino-7-(3-fluorophenyl)-thiazolo[5,4-f]quinoline]	–
–	2 µM	CNc1cc(-c2cccc(F)c2)nc2ccc3sc(C)nc3c12 [Example 6, 7-(3-fluorophenyl)-2-methyl-9-methylamino thiazolo[4,5-f]quinoline]	–
